Test results: US8557859B2, “Immunomodulatory compositions” (Summit (Wales) Limited, priority 2003, dated 2013)
Read-outs that look alike come from different tables or passages of the source.

Experiments:
Dendritic cells [1] = experiment: Induction of IL-12 secretion in dendritic cells (ELISA); type: cell-based, BALB/c mice; details: for IL-12 RELEASE: dendritic cells, compounds 50 μg/ml and 20 μg/ml, 24 hrs (or 48 hrs)
Procedure: BALB/c male and female mice bred and maintained at the University of Strathclyde under conventional conditions were used at 8 weeks old.
Bone marrow was obtained from the femurs of mice. The femurs were washed in 70% ethanol and placed in a clean petri dish. Dendritic cell (DC) medium (2.5% granulocyte-macrophage colony-stimulating factor (GM-CSF), 10% […] foetal calf serum, 1% L-glutamine, 1% Penicillin/Streptomycin in RPMI-1640 medium) was injected into the bone marrow of the femur by a pumping action and the cells and medium were collected. 1 ml of the cells in medium was added to a 75 cm^2 flask with 15 mls of DC medium. The flasks were then incubated at 37° C., 5% CO2 to allow DC growth and development. After 5 days an additional 10 mls of DC medium was added.
After 10 days of incubation of bone marrow with GM-CSF, the dendritic cells were harvested. This process was carried out in a tissue culture hood. The contents of the flasks were poured into centrifuge tubes to ensure collection of floating DCs. Approximately 10 mls of cooled phosphate buffered saline (PBS) was added to each empty flask, the flasks gently agitated and the contents collected. […] The collected contents of the flasks were centrifuged for 5 minutes at 200 g and the pellet resuspended in 2 mls of DC medium without GM-CSF. A cell count was then carried out.
Cells were counted using a haemocytometer. Approximately 20 μl of the resuspended cells was pipetted into the chamber of the haemocytometer, the cells were adjusted to the correct cell concentration (approx. 5×10^4, and not less than 1×10^4, per well) and then plated out for assay.
The plates were incubated overnight at 37° C. with 5% CO2 and allowed to settle (harvesting stimulates them). The next day the compounds (50 μg/ml and 20 μg/ml) and controls were added then again incubated at 37° C. with 5% CO2 for 24 hrs (or 48 hrs). Harvesting and addition of the compounds was all done in a hood. The plates were then frozen to kill the cells and once defrosted the supernatant analysed as described below.
Using an enzyme linked immunosorbent assay (ELISA) IL-12 concentration in the supernatants was measured. All reagents used in this assay were from PharMingen. A 96-well flat-bottomed ELISA plate was coated with purified rat anti-mouse IL-12 (p40/p70) MAb (Cat no. 554478) at 2 μg/ml diluted in PBS pH 9.0 at 50 μl/well. The plate was then covered in cling film and incubated at 4° C. Following incubation the plate was washed 3 times in washing buffer and dried. 200 μl of blocking buffer (10% foetal calf serum in PBS pH 7.0) was added to each well then covered in cling film and incubated at 37° C. for 45 minutes. The plate was washed 3 times and dried. Recombinant mouse Il-12 standard was added at 30 μl in duplicate wells, starting at 10 ng/ml then 5, 2.5, 1.25, 0.625, 0.31, 0.156, 0.078, 0.039, 0.020, 0.010, 0.005 ng/ml. Standards were diluted in blocking buffer. The supernatant samples were added in at 50 μl/well. The plate was then covered in cling film and incubated for 2 hours at 37° C. The plate was then washed 4 times, dried and the secondary antibody added.
Biotin labelled anti-mouse IL-12 (p40/p70) MAb (Cat no. 18482D) at 1 μg/ml (diluted in blocking buffer) was added to each well at a volume of 100 μl/well. The plate was covered in cling film and incubated at 37° C. for 1 hour. The plate was then washed 5 times, dried and the conjugate added. Streptavidin-AKP (Cat no. 13043E) at 100 μl/well was added at a dilution of 1/2000 in blocking buffer followed by incubation under cling film at 37° C. for 45 minutes.
The plate was finally washed 6 times, dried and the substrate added. pNPP (Sigma) in glycine buffer at 1 mg/ml was added at 100 μl/well. The plate was then covered in tinfoil, incubated at 37° C. and checked every 30 minutes for a colour change.
The plate was then read at 405 nm using a SPECTRAmax 190 spectrometer.

Dendritic cells [2] = type: cell-based, BALB/c mice
Procedure: Bone marrow was obtained from the femurs of mice. The femurs were washed in 70% ethanol and placed in a clean petri dish. Dendritic cell (DC) medium (2.5% granulocyte-macrophage colony-stimulating factor (GM-CSF), 10% heat and activated foetal calf serum, 1% L-glutamine, 1% Penicillin/Streptomycin in RPMI-1640 medium) was injected into the bone marrow of the femur by a pumping action and the cells and medium were collected. 1 ml of the cells in medium was added to a 75 cm^2 flask with 15 mls of DC medium. The flasks were then incubated at 37° C., 5% CO2 to allow DC growth and development. After 5 days an additional 10 mls of DC medium was added.
After 10 days of incubation of bone marrow with GM-CSF, the dendritic cells were harvested. This process was carried out in a tissue culture hood. The contents of the flasks were poured into centrifuge tubes to ensure collection of floating DCs. Approximately 10 mls of cooled phosphate buffered saline (PBS) was added to each empty flask, the flasks gently agitated and the contents collected. This ensured recovery of adhesive DCs. […]
Cells were counted using a haemocytometer. […]
The plates were incubated overnight at 37° C. with 5% CO2 and allowed to settle (harvesting stimulates them). […] The plates were then frozen to kill the cells and once defrosted the supernatant analysed as described below.

Spleen cells = experiment: Cytokine modulation in spleen cells: splenocyte IFN-γ production; type: cell-based, BALB/c mice; details: for IFN-γ: splenocytes
Procedure: BALB/c male and female mice bred and maintained at the University of Strathclyde under conventional conditions were used at varying age.
The mouse spleen was removed aseptically and placed in a sterile petri dish containing 5 mls of complete medium (RPMI, 1% L-Glutamine, 1% Penicillin/Streptomycin and 10% foetal calf serum). Cells suspensions were prepared by using the end of a syringe and grinding the spleen through a wire mesh. The cell suspension was then centrifuged at 1000 rpm for 5 minutes. To remove the erythrocytes, the cell pellet was resuspended in Boyle's solution (Tris 0.17M & Ammonium Chloride 0.16M) and centrifuged again for 5 minutes. The pellet was then washed in medium a further two times, then resuspended in 3 mls medium. A cell count was then carried out.
All spleen cell experiments were carried out in 96-well tissue culture plates. […] Unstimulated wells contained 100 μl of cells and 100 μl of medium. The stimulated wells contained 100 μl of cells plus 50 μl of LPS at 1 μg/ml or 50 μl anti-CD3 at 0.5 μg/ml and 50 μl of medium. The remaining wells contained 100 μl cells, 50 μl of MNLP compound and either 50 μl of anti-CD3 or medium alone.
The appropriate Mabs and standards were used according to the protocol described for IL-12 (described in Example 1, above).

α-D-glucosidase [3] = experiment: Glycosidase inhibition, α-D-glucosidase (Bacillus); type: biochemical, Bacillus stearothermophilus; details: 1 mg/ml
Procedure: (§1) All enzymes were purchased from Sigma, as were the appropriate p-nitrophenyl substrates. Assays were carried out in microtitre plates. Enzymes were assayed in 0.1 M citric acid/0.2M di-sodium hydrogen phosphate (McIlvaine) buffers at the optimum pH for the enzyme. All assays were carried out at 20° C. For screening assays the incubation assay consisted of 10 μl of enzyme solution, 10 μl of inhibitor solution (made up in water) and 50 μl of the appropriate 5 mM p-nitrophenyl substrate (3.57 mM final conc.) made up in McIlvaine buffer at the optimum pH for the enzyme.
(§2) The reactions were stopped with 0.4M glycine (pH 10.4) during the exponential phase of the reaction, which was determined at the beginning of the assay using blanks with water, which were incubated for a range of time periods to measure the reaction rate using 5 mM substrate solution. Endpoint absorbances were read at 405 nm with a Biorad microtitre plate reader (Benchmark). Water was substituted for the inhibitors in the blanks.

β-D-glucosidase = experiment: Glycosidase inhibition, β-D-glucosidase; type: biochemical, Almonds (Prunus sp.); details: for % inhibition glucosidase: 1 mg/ml
Procedure: as §1, §2

Naringinase = experiment: Glycosidase inhibition, Naringinase; type: biochemical, Penecillium decumbens; details: 1 mg/ml
Procedure: as §1, §2

[4] = tested on: N-acetyl-β-D-glucosaminidase; experiment: Glycosidase inhibition, N-acetyl-β-D-glucosaminidase; type: biochemical, Bovine kidney; details: 1 mg/ml
Procedure: as §1, §2

[5] = tested on: glycosidase enzymes of Table 4.1; experiment: Glycosidase inhibition, all enzymes tested (Table 4.1); type: biochemical; details: 1 mg/ml; result in words
Procedure: as §1, §2

[6] = tested on: spleen cells from Leishmania major infected BALB/c mice; experiment: Non-healing leishmaniasis model: splenocyte IFN-γ; type: cell-based; details: for IFN-γ: Table 10.1
[7] = tested on: spleen cells from Leishmania major infected BALB/c mice; experiment: Non-healing leishmaniasis model: splenocyte IL-5; type: cell-based
α-D-glucosidase [8] = molecular target: T1, α-D-glucosidase (Saccharomyces cerevisiae, UniProt P53341); experiment: Glycosidase inhibition, α-D-glucosidase (yeast); type: biochemical, Saccharomyces cerevisiae (Baker's yeast); details: at a concentration of 800 μM
T1 construct: purchased Sigma
Procedure: as §1, §2

β-D-galactosidase = experiment: Glycosidase inhibition, β-D-galactosidase; type: biochemical, Bovine liver; details: 1 mg/ml; second galactosidase line
Procedure: as §1, §2

[9] = molecular target: rabbit gut mucosa α-D-glucosidase; experiment: Inhibition of rabbit gut mucosa α-D-glucosidase; type: biochemical
[10] = molecular target: T2, rabbit small intestine sucrase (Oryctolagus cuniculus, UniProt P07768); experiment: Inhibition of rabbit small intestine sucrase; type: biochemical; details: at a concentration of 700 μM
T2 construct: from tissue; host or cells: rabbit small intestine

[11] = tested on: Na^+-dependent D-glucose uptake into ovine intestinal brush border membrane vesicles; experiment: Effect on glucose transport (competition assay with labelled D-glucose); type: biochemical
α-mannosidase = details: background statement; cited from earlier work

T1 sequence (P53341 whole entry): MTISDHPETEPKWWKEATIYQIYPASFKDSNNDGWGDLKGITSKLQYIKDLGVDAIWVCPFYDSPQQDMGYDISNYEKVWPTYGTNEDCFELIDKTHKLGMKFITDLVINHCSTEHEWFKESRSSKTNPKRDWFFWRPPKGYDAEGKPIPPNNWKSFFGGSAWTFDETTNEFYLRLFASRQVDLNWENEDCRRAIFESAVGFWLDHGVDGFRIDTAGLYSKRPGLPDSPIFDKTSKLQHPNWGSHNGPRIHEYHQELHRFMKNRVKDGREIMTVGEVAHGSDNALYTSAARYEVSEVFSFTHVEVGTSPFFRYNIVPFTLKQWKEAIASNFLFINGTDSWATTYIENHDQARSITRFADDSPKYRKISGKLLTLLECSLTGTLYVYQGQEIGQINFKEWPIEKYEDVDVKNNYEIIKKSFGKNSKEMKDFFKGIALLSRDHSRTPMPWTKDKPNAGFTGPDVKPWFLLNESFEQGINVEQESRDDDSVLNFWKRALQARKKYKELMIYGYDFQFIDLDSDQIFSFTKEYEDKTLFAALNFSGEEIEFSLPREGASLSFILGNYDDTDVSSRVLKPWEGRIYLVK
T2 sequence (P07768 whole entry): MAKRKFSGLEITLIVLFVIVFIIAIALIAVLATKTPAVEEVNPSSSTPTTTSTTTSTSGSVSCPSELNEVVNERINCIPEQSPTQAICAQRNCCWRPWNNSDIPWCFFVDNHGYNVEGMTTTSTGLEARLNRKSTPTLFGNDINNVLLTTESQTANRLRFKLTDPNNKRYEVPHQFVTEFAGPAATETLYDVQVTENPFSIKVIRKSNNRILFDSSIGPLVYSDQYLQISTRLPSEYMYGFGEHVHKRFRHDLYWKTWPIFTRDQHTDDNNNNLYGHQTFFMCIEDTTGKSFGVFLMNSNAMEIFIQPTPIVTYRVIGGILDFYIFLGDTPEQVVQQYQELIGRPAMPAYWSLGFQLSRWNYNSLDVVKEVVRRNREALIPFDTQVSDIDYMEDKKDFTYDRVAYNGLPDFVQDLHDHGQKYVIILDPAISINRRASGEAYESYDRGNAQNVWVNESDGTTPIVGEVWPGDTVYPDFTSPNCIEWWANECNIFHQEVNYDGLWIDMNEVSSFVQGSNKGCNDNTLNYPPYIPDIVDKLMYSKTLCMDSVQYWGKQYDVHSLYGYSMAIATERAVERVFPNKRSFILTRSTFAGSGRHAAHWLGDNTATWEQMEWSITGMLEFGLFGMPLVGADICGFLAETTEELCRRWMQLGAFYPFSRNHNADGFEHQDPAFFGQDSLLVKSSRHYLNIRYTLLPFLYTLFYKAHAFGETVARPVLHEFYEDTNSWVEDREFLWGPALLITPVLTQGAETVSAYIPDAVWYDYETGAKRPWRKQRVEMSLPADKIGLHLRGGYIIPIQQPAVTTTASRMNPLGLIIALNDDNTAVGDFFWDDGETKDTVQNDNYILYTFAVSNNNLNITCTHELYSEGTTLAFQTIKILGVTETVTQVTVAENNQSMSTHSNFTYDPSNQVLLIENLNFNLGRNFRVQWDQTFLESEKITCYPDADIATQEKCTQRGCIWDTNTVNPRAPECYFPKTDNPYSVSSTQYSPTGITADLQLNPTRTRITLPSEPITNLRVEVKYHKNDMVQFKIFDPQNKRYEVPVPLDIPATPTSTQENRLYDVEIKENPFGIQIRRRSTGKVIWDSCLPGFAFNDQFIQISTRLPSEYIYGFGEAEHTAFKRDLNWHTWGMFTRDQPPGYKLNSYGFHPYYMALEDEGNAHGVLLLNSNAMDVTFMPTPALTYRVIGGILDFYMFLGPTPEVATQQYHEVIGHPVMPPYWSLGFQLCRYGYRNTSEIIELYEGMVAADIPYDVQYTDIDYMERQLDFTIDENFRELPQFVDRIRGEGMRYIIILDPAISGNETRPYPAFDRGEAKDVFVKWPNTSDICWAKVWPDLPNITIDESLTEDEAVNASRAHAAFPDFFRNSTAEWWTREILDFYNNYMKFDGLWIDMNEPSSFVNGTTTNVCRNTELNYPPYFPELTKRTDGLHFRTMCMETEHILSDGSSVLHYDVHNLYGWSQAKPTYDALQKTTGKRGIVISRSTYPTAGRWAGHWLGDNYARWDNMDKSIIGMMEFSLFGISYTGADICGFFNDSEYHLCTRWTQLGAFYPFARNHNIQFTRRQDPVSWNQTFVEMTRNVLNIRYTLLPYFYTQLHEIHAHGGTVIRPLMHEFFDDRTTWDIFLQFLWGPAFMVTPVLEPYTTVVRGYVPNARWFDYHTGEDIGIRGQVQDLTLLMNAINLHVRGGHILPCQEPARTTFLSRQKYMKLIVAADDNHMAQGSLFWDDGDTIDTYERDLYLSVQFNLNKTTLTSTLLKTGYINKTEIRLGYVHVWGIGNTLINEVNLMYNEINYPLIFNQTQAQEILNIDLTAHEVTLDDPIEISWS

For OC[C@H]1[C@@H](O)[C@H](O)[C@H]2[C@@H](O)[C@@H](O)CN21 [3,7-diepi-casuarine (10), (1R,2R,3S,6S,7R,7aR)-3-(Hydroxymethyl)-1,2,6,7-tetrahydroxypyrrolizidine], the “IL-12 RELEASE” value (Dendritic cells [1]) was “Yes”, the “IL-2 (units/ml)” value (Dendritic cells [2]; compound + LPS) was 0.69 units/ml and the “IL-2 (units/ml)” value (Dendritic cells [2]; treatment alone) was 0.00 units/ml. For the same compound, the “IFN-γ” value (Spleen cells; Table 3.1, treatment alone) was 0.22 ng/mL, the “% inhibition gluc (Bacillus)” value (α-D-glucosidase [3]) was −7% and the “% inhibition glucosidase” value (β-D-glucosidase) was 5%. The “% inhibition Naringinase” value (Naringinase) was 6%, the “% inhibition N-acetyl-β-gluc” value [4] was −6% and the “inhibition of any of the enzymes tested” value [5] was “do not significantly inhibit any of the enzymes tested”. The “IFN-γ” value ([6]; compound + L. major Ag) was 5.5 ng/mL, the “IFN-γ” value ([6]; treatment alone) was roughly 0.5 ng/mL and the “IFN-γ (healing Th1 response)” value ([6]; result in words) was “enhances IFN-γ”. For the same compound, the “IL-5” value ([7]; Table 10.2, compound + αCD3) was 150 pg/mL and the “Th2 response (IL-5)” value ([7]; result in words) was “suppressing the Th2 response (via downregulation of the Th2 cytokine IL-5)”.

In the case of O[C@H]1[C@H](O)[C@@H](O)CN2CC[C@H](O)[C@H]12 [Castanospermine (20), Castanospermine, reference compound], the “IL-12 RELEASE” value (Dendritic cells [1]) is reported as “No”, the “IFN-γ” value (Spleen cells; Table 3.2, compound + αCD3) is reported as 9.0 ng/mL and the “IFN-γ” value (Spleen cells; Table 3.2, treatment alone) is reported as less than 1.0 ng/mL. For the same compound, the “IFN-γ secretion/production in splenocytes” value (Spleen cells; result in words) was “inhibits the production of this cytokine”, the “inhibition of yeast α-D-glucosidase” value (α-D-glucosidase [8]) was “not being inhibitory” and the “% inhibition gluc (Bacillus)” value (α-D-glucosidase [3]) was 6%. For the same compound, the “% inhibition glucosidase” value (β-D-glucosidase) was 88%, the Ki (β-D-glucosidase; read-out: Ki with almond 6-D-glucosidase) was 9 µM and the “% inhibition galactosidase” value (β-D-galactosidase) was 16%. For the same compound, the “% inhibition Naringinase” value (Naringinase) was 39%, the “% inhibition N-acetyl-β-gluc” value [4] was 16% and the IC50 [9] was 8 µM. For the same compound, the “inhibition of rabbit small intestine sucrase” value [10] was “inhibited”, the “Glucose uptake” value ([11]; initial rate, control 240) was 225 pmol/s/mg and the glucose transport ([11]; result in words) was “slightly inhibited”.

In the case of O[C@H]1[C@H]2[C@H](O)CCCN2C[C@H]1O [Swainsonine (4), Swainsonine], the “IL-12 RELEASE” value (Dendritic cells [1]) is given as “No”, the IL-12 secretion (Dendritic cells [1]; tested at 50 μg/ml) is given as “failed to induce IL-12 secretion” and the “inhibition of α-mannosidase” value (α-mannosidase) is given as “potent and specific inhibitor of α-mannosidase”.
